Measured values from ChEMBL document CHEMBL5236635, “Structure-Based Drug Design and Synthesis of Novel N-Aryl-2,4-bithiazole-2-amine CYP1B1-Selective Inhibitors in Overcoming Taxol Resistance in A549 Cells” (J Med Chem, 2022).
Calls of active or inactive are those of the source. The rule behind the calls is not given here.

Legend:
NCI-H460 [1] = assay: Inhibition of DMBA-induced CYP1B1 overexpression in human NCI-H460 cells assessed as increase in N-cadherin level incubated for 24 hrs by densitometry analysis; type: functional, cell-based; settings: dose 5.0 µM
NCI-H460 [2] = assay: Inhibition of DMBA-induced CYP1B1 overexpression in human NCI-H460 cells assessed as increase in SRC level at 5 uM incubated for 24 hrs by densitometry analysis; type: functional, cell-based
NCI-H460 [3] = assay: Inhibition of DMBA-induced CYP1B1 overexpression in human NCI-H460 cells assessed as increase in snail level incubated for 24 hrs by densitometry analysis; type: functional, cell-based; settings: dose 5.0 µM
A549/TR [4] = assay: Synergistic antiproliferative activity against human A549/Taxol cells assessed as increase in taxol by measuring combination index at 30 uM incubated for 72 hrs in presence of 1 uM taxol by MTT assay; type: functional
A549/TR [5] = assay: Reversal of taxol resistance in human A549/Taxol cells assessed as increase in Rho123 accumulation at 2.5 to 10 uM incubated for 20 mins by multimode plate reader analysis; type: functional, cell-based; settings: dose 2.5-10 µM
A549/TR [6] = assay: Synergistic antiproliferative activity against human A549/Taxol cells assessed as increase in taxol by measuring combination index at 7.50 uM incubated for 72 hrs in presence of 0.06 uM taxol by MTT assay; type: functional; settings: dose 7.5 µM
[7] = target: Proto-oncogene tyrosine-protein kinase Src (Homo sapiens) (UniProt P12931); assay: Inhibition of SRC pathway in human A549/Taxol cells assessed as decrease in phosphorylated FAK level at 2.5 to 5 uM incubated for 24 hrs; type: cell-based; settings: dose 2.5-5 µM
Proto-oncogene tyrosine-protein kinase Src (Homo sapiens), sequence (P12931 2-536 limits assumed): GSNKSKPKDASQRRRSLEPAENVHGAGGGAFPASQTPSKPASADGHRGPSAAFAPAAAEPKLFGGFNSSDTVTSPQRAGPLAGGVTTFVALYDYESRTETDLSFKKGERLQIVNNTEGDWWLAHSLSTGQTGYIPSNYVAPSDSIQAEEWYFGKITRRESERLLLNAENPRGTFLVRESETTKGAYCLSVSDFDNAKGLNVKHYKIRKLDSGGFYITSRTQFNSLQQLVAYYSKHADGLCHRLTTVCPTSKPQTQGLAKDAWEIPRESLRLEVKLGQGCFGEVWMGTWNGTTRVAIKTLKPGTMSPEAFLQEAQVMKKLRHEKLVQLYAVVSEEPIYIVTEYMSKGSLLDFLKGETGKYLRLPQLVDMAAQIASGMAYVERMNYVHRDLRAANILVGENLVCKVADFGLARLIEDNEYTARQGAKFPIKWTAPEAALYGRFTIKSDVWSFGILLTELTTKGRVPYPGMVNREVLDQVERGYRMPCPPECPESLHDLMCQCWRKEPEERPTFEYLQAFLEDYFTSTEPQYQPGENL

A549/TR [8] = assay: Synergistic antiproliferative activity against human A549/Taxol cells assessed as increase in taxol by measuring combination index at 30 uM incubated for 72 hrs in presence of 0.13 uM taxol by MTT assay; type: functional

SMILES | inhibition (NCI-H460 [1]) | inhibition (NCI-H460 [2]) | inhibition (NCI-H460 [3]) | CI (A549/TR [4]) | Activity (A549/TR [5]) | CI (A549/TR [6]) | inhibition [7] | CI (A549/TR [8])
COc1cc(/C=C/c2ccc(OC)cc2OC)cc(OC)c1 | Dose-Dependent Effect | inactive | Dose-Dependent Effect |  |  |  |  | 
COc1cc(Nc2nc(-c3nc(-c4ccccc4F)cs3)cs2)cc(OC)c1 |  |  |  | 0.02 | Active | 0.68 | Active | 0.11
